According to patent US20240158393A1, “PYRIDONE COMPOUNDS AND METHODS OF USE” (Exelixis, Inc., priority 2021, published 2024):

These molecules were tested against T1, Human Axl (Homo sapiens, UniProt P30530) (assay: Human AXL kinase assay (33P radiometric / HTRF KinEase)). Settings: protocols of Examples A-1 and/or A-2.
T1 construct: Human AXL (residues 464-885)
T1 sequence (P30530 1-894 Q764R): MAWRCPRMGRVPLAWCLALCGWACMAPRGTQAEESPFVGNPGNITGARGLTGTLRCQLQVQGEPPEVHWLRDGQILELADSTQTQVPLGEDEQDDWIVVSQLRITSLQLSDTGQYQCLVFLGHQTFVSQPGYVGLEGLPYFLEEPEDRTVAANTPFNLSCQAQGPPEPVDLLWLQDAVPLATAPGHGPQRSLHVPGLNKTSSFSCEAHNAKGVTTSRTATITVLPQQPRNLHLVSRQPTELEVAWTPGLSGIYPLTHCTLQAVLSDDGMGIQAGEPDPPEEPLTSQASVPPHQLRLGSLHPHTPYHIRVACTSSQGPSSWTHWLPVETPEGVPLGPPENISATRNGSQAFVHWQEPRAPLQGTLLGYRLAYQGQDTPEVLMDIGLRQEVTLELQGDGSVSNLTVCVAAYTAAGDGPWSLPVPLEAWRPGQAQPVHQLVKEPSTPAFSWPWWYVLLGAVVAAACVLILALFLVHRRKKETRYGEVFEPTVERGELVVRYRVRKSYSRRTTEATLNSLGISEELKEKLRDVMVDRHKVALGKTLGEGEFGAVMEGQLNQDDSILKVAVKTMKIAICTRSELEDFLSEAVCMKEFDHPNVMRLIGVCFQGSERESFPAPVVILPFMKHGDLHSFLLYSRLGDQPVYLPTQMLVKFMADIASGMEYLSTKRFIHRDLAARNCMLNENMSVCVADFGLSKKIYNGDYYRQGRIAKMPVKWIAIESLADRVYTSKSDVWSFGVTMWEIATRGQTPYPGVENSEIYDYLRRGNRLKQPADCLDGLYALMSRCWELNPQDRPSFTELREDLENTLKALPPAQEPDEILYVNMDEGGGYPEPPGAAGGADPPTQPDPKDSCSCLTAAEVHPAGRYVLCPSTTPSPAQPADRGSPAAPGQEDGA
Format: biochemical
Protocol: Kinase activity and compound inhibition were investigated using the ^33P-Phosphoryl transfer radiometric kinase assay, performed using the KinaseProfiler™ service of Eurofins Pharma Discovery Services UK Limited. Dose-response experiments were performed using nine compound concentrations in a 96-well microtiter plate. For each assay, all compounds were prepared to a 50× final assay concentration (50 μM) in 100% DMSO, then diluted in a half-log series, with the final top concentration at 1 μM. This working stock of the compound was added to the assay well as the first component in the reaction, followed by the remaining components as detailed in the following assay protocols below. The positive control wells (100% kinase activity) contain all components of the reaction including 2% DMSO (control for solvent effects), except the compound of interest. Blank wells contain all components of the reaction, with the reference inhibitor, staurosporine. This reference compound was used to abolish kinase activity and generated the 0% kinase activity base-line. IC50 values were calculated by nonlinear regression analysis using the sigmoidal dose-response (variable slope) curve fit on XLFit version 5.3 (ID Business Solutions).
Kinase activity and compound inhibition were also investigated using the HTRF® KinEase assay (Cisbio Cat #62TKOPEB) per manufacturer's instructions. In short, compounds were delivered in 300 nL volumes at 10 different concentrations in DMSO (3% final) to empty 384-well assay plates (Corning cat #3824). A mixture of enzyme, 1 μM biotinylated peptide substrate, and buffer in 10 μL volume was added. The assay was started upon the addition of ATP (at Km). The 10 μL reaction was incubated at room temperature. The reaction was stopped upon the addition of detection buffer containing streptavidin-XL665 (5 μL) and TK antibody-Eu3+(5 μL). After a 60 min incubation at room temperature, the fluorescence at 665 nm and 620 nm was read on an Envision microplate reader (Perkin Elmer).
Kinase activity normalized to DMSO (100% activity) and reference compound at 1 μM and (0% activity) was calculated using the fluorescence ratio […]. IC50 values were calculated by nonlinear regression analysis using a 4-parameter logistic curve fit in ActivityBase XE (IDBS).
Example A-1: Human Axl (residues H473-A894 with Q764R, 161 nM) was incubated with 8 mM MOPS pH 7.0, 0.2 mM EDTA, 250 μM KKSRGDYMTMQIG (SEQ ID NO:1), 10 mM magnesium acetate and 10 μM [γ-^33P-ATP]. The reaction was initiated by the addition of the Mg/ATP mix. After incubation for 40 minutes at room temperature, the reaction was stopped by the addition of phosphoric acid to a concentration of 0.5%. A reaction aliquot of 10 μL was then spotted onto a P30 filtermat and washed four times for 4 minutes in 0.425% phosphoric acid and once in methanol prior to drying and scintillation counting. Incorporated ^33P was measured using the Wallac Microbeta scintillation counter (Perkin Elmer).
Example A-2: Human AXL (residues 464-885; CarnaBio, 1 ng/well) was also incubated with enzymatic buffer (Cisbio) supplemented with 5 mM MgCl2, 1 mM DTT, and Supplemental Enzymatic Buffer (SEB; Cisbio). The mixture was added to the pre-plated compounds. The reaction was initiated upon addition of ATP at Km (1.0 μM). The reaction was incubated at room temperature for 50 min and stopped upon the addition of SA-XL665 and TK-antibody both diluted in EDTA-containing kinase detection buffer (Cisbio). The kinase activity was calculated as stated above and the IC50 values were reported.

Row | Structure (SMILES) | IC50 [nM]
1 | COc1cc2nccc(Oc3ccc(NC(=O)c4cnc(C)c(/C=C/C5CCCC5)c4O)cc3F)c2nc1OC [Compound 25, 5-[(E)-2-Cyclopentylethenyl]-N-[4-[(6,7-dimethoxy-1,5-naphthyridin-4-yl)oxy]-3-fluorophenyl]-4-hydroxy-6-methylpyridine-3-carboxamide] | ≤ 100
2 | COCCOc1cc2nccc(Oc3ccc(NC(=O)c4cnc(C)c(/C=C/C5CCCC5)c4O)cc3F)c2nc1OC [Compound 36, 5-[(E)-2-Cyclopentylethenyl]-N-[3-fluoro-4-[[6-methoxy-7-(2-methoxyethoxy)-1,5-naphthyridin-4-yl]oxy]phenyl]-4-hydroxy-6-methylpyridine-3-carboxamide] | ≤ 100
3 | COc1cc2nccc(Oc3ccc(NC(=O)c4c(C)nc(C)c(C(=O)NC5CC5)c4O)cc3F)c2nc1OC [Compound 98, 5-N-Cyclopropyl-3-N-[4-[(6,7-dimethoxy-1,5-naphthyridin-4-yl)oxy]-3-fluorophenyl]-4-hydroxy-2,6-dimethylpyridine-3,5-dicarboxamide] | ≤ 100
4 | COc1cc2nccc(Oc3ccc(NC(=O)c4c(C)nc(C)c(C(=O)N(C)C)c4O)cc3F)c2nc1OC [Compound 93, 3-N-[4-[(6,7-Dimethoxy-1,5-naphthyridin-4-yl)oxy]-3-fluorophenyl]-4-hydroxy-5-N,5-N,2,6-tetramethylpyridine-3,5-dicarboxamide] | ≤ 100
5 | COc1cc2nccc(Oc3ccc(NC(=O)c4cnc(C)c(C5=CCOCC5)c4O)cc3F)c2nc1OC [Compound 1-3, 5-(3,6-Dihydro-2H-pyran-4-yl)-N-[4-[(6,7-dimethoxy-1,5-naphthyridin-4-yl)oxy]-3-fluorophenyl]-4-hydroxy-6-methylpyridine-3-carboxamide] | ≤ 100
6 | COc1cnc2c(Oc3ccc(NC(=O)c4cn(C)c(C)c(C5=CCOCC5)c4=O)cc3F)ccnc2c1 [Compound 12, 5-(3,6-Dihydro-2H-pyran-4-yl)-N-[3-fluoro-4-[(7-methoxy-1,5-naphthyridin-4-yl)oxy]phenyl]-1,6-dimethyl-4-oxopyridine-3-carboxamide] | ≤ 100
7 | COc1cc2nccc(Oc3cc(F)c(NC(=O)c4c(C)n(C)c(C)c(C5CC5)c4=O)cc3F)c2nc1OC [Compound 47, 5-Cyclopropyl-N-[4-[(6,7-dimethoxy-1,5-naphthyridin-4-yl)oxy]-2,5-difluorophenyl]-1,2,6-trimethyl-4-oxopyridine-3-carboxamide] | ≤ 100
8 | COCCOc1cc2nccc(Oc3ccc(NC(=O)c4c(O)c(C5=CCOCC5)c(C)[n+](C)c4C)cc3F)c2nc1OC [Compound 44, 5-(3,6-Dihydro-2H-pyran-4-yl)-N-[3-fluoro-4-[[6-methoxy-7-(2-methoxyethoxy)-1,5-naphthyridin-4-yl]oxy]phenyl]-1,2,6-trimethyl-4-oxopyridine-3-carboxamide] | ≤ 100
9 | COc1cc2nccc(Oc3ccc(NC(=O)c4c(C)nc(C)c(C5=CCCCC5)c4O)cc3F)c2nc1OC [Compound 2-3, 5-(Cyclohexen-1-yl)-N-[4-[(6,7-dimethoxy-1,5-naphthyridin-4-yl)oxy]-3-fluorophenyl]-4-hydroxy-2,6-dimethylpyridine-3-carboxamide] | ≤ 100
10 | COc1cc2nccc(Oc3ccc(NC(=O)c4c5n(cc(C6=CCOCC6)c4=O)CCOC5)cc3)c2nc1OC [Compound G1-8, 7-(3,6-Dihydro-2H-pyran-4-yl)-N-[4-[(6,7-dimethoxy-1,5-naphthyridin-4-yl)oxy]phenyl]-8-oxo-3,4-dihydro-1H-pyrido[2,1-c][1,4]oxazine-9-carboxamide] | ≤ 100
11 | COc1cc2nccc(Oc3ccc(NC(=O)c4c(C)ccn(C(C)C)c4=O)cc3)c2nc1OC [Compound 39, N-[4-[(6,7-Dimethoxy-1,5-naphthyridin-4-yl)oxy]phenyl]-4-methyl-2-oxo-1-propan-2-ylpyridine-3-carboxamide] | > 300
12 | COc1cc2nccc(Oc3ccc(NC(=O)c4c(C)nc(C)c(C(C)C)c4O)cc3)c2nc1OC [Compound 9, N-[4-[(6,7-Dimethoxy-1,5-naphthyridin-4-yl)oxy]phenyl]-4-hydroxy-2,6-dimethyl-5-propan-2-ylpyridine-3-carboxamide] | ≤ 100
